SMILES strings stand for the structures.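 1) Cells in 96-well plates. 2) Compound, 48 h, 5 concentrations. 3) Linear interpolation between surrounding doses. 4) Unreached endpoint = highest concentration. GI50: concentration for 50% inhibition of growth. At the TGI there is no net growth.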 Some results are limits rather than exact numbers.

Holding throughout (test): NCI-60 cell line screen, 48 h
Test [1] relates to UACC-62 melanoma.
Test [2] has as its system NCI-H23 lung.
The test system of test [3] is SK-MEL-28 melanoma.
Test [4] deals with KM12 colon.
Test [5] deals with EKVX NSCLC.
The test system of test [6] is NCI-H226 lung.
Test [7] has as its system SK-OV-3 ovarian.
Test [8] has as its system A549 NSCLC.
The subject of test [9] is SR leukemia.
For test [10], the system named is TK-10 renal.

On to `CCOC(=O)c1c(C)n(Cc2ccc(Cl)cc2Cl)c2c1cc1oc(=O)c(=O)n3c(Cc4ccccc4)nc2c13`, for which the GI50 in test [1] was 14.5 µM; in test [2], 2.8 µM; in [3] it was 11 µM; in test [4] it was 1.63 µM; in test [5] it was 8.05 µM; in test [6], 10.7 µM. Besides, the GI50 in test [7] is 15.3 µM; in test [8] it was 3.64 µM; in [9] it was 0.378 µM; in [10] it was 2.64 µM. In addition, the TGI turned out to be 28.2 µM in test [1]; 7.3 µM in [2]; 24.9 µM in test [3]; 3.47 µM in test [4]; 20.8 µM in [5]; 25 µM in test [6]. The TGI in test [7] came out at 30.7 µM; in test [8], 13.5 µM; in test [9] it was 2.38 µM; in test [10], 6.95 µM.
As for `CC(=O)NC(CCCN(Cc1ccccc1)C(=O)N(CCCl)N=O)C(=O)NCc1ccccc1` (stereo not given), the TGI in test [1] was over 100 µM; in test [2] it was over 75.1 µM; in test [3], over 100 µM; in [4], over 100 µM; in test [5], over 100 µM; in test [6], over 94.2 µM. For the same compound, the TGI in test [7] is over 100 µM; in test [8], over 100 µM; in [9] it was over 88.8 µM; in test [10] it was over 100 µM.
As for `O=c1oc2ccc(Cl)cc2c(=O)n1-c1ccc(I)cc1F`, the GI50 in test [1] is 0.104 µM; in [2], 0.169 µM; in test [3], 0.178 µM; in test [4], 2.21 µM; in test [5] it was 0.444 µM; in [6] it was 0.566 µM. Further, the GI50 in test [7] was 0.451 µM; in [8], 1.01 µM; in test [9], 0.228 µM; in test [10], 0.605 µM. Besides, the TGI in test [1] was found to be 0.788 µM; in test [2], 1.5 µM; in test [3], 2.01 µM; in test [4], 5.55 µM; in [5], 4.98 µM; in [6], 2.92 µM. Further, the TGI in test [7] is 4.31 µM; in test [8], over 100 µM; in [9], 5.97 µM; in test [10], 11.4 µM.
For `CN(C)c1ccc(N=Nc2c([O-])ccc3ccccc23)cc1.[C-]#[O+].[C-]#[O+].[Ir]`, the GI50 in test [1] was 21.5 µM; in test [2], 19.4 µM; in test [3], 26.3 µM; in [4], over 100 µM; in [5] it was 20.6 µM; in test [6] it was over 53.9 µM. Besides, the GI50 in test [7] is over 100 µM; in test [8], over 46.6 µM; in test [9], 17.9 µM; in test [10], 23.8 µM. Moreover, the TGI in [1] is 55.6 µM; in [2] it was 54.9 µM; in [3], 65.4 µM; in [4], over 100 µM; in [5], 64.1 µM; in test [6], over 100 µM. In addition, the TGI in test [7] was over 100 µM; in test [8], over 69.3 µM; in test [9], 57.7 µM; in test [10], 51.7 µM.
For `O=C(NN1C(=O)CSC1c1ccc(Cl)cc1)c1[nH]c2ccc(F)cc2c1-c1ccccc1` (stereo not given), the GI50 in test [1] was 5.38 µM; in test [2], 2.26 µM; in test [3] it was 3.23 µM; in test [4], 1.61 µM; in test [5], 6.23 µM; in test [6], 3.51 µM. For the same compound, the GI50 in test [7] is 7.25 µM; in test [8], 3.58 µM; in test [9] it was 2.27 µM; in test [10], 2.31 µM. Moreover, the TGI turned out to be 17.3 µM in test [1]; 6.59 µM in test [2]; 10.1 µM in test [3]; 3.38 µM in [4]; 24.8 µM in [5]; 9.43 µM in [6]. Moreover, the TGI in test [7] was 20 µM; in test [8], 15.6 µM; in test [9], 6.27 µM; in test [10], 5.52 µM.
As for `COc1cc(/C=C(/c2ccccc2)[N+](=O)[O-])c(OC)c2c1OCO2`, the GI50 is 1.44 µM in test [1]; 1.73 µM in test [2]; 1.47 µM in test [3]; 1.84 µM in test [4]; 1.69 µM in test [5]; 1.79 µM in test [6]. Further, the GI50 was 2.89 µM in test [7], 2.1 µM in test [8], 0.334 µM in [9] and 2.05 µM in [10]. Further, the TGI in test [1] turned out to be 2.98 µM; in [2], 3.41 µM; in [3], 2.84 µM; in [4], 3.44 µM; in [5], 3.32 µM; in test [6] it was 3.46 µM. Further, the TGI was found to be 8.29 µM in [7], 5.03 µM in [8], 2.65 µM in test [9] and 3.81 µM in test [10].
On to `Cc1cc(N2CCCC2)nc(N(CCCNc2ccnc3cc(Cl)ccc23)Cc2ccc3c(c2)OCO3)n1`, for which the GI50 was 1.78 µM in [1]; 2.36 µM in test [2]; 1.3 µM in test [3]; 2.73 µM in test [4]; 3.16 µM in test [5]; 5.2 µM in test [6]. Besides, the GI50 in test [7] was 4.98 µM; in test [8], 2.74 µM; in [9], 0.152 µM; in [10], 2.25 µM. In addition, the TGI in [1] was 3.38 µM; in [2] it was 15.5 µM; in test [3], 2.74 µM; in [4] it was 11 µM; in [5] it was over 100 µM; in test [6], 33.8 µM. Further, the TGI is 20.3 µM in test [7], 12.5 µM in test [8], 0.431 µM in test [9] and 6.81 µM in test [10].
`Cn1cc(-c2ccc3c(c2)CCN3C(=O)Cc2cccc(C(F)(F)F)c2)c2c(N)ncnc21`: the GI50 in test [1] is 2.72 µM; in [2], 4.43 µM; in test [3], 4.72 µM; in test [4] it was 0.401 µM; in test [5], 8.7 µM; in test [6], 3.85 µM. In addition, the GI50 in [7] is 1.26 µM; in test [8], 7.61 µM; in [9] it was 2.38 µM; in test [10], 6.09 µM. Further, the TGI in test [1] is 16.9 µM; in [2], 24.2 µM; in test [3], 21.4 µM; in [4], 15.5 µM; in test [5], 29 µM; in test [6], 19.1 µM. For the same compound, the TGI in [7] was found to be 8.14 µM; in [8], 25.5 µM; in test [9], 23.4 µM; in [10], 39 µM.
With `COc1cc2cc(Oc3ccc(NC(=O)c4ccc(Cl)c(C(F)(F)F)c4)cc3)c(C)nc2cc1OC`, the GI50 in [1] is 18.2 µM; in test [2], 9.73 µM; in test [3] it was 30.3 µM; in test [4], 12.3 µM; in test [5], 5.76 µM; in [6] it was 19.6 µM. The GI50 in [7] is 66 µM; in [8], 10.3 µM; in test [9] it was 14.3 µM; in test [10], 12.4 µM. Besides, the TGI in test [1] is over 100 µM; in [2] it was over 100 µM; in test [3] it was over 100 µM; in test [4] it was over 100 µM; in test [5], 83.3 µM; in test [6] it was over 100 µM. Also, the TGI in test [7], in test [8], in test [9] and in [10] was over 100 µM in each case.
As for `CCc1c[nH]c2ncnc(N3CC[C@@](N)(CNC(=O)c4ccc(F)cc4F)C3)c12`, the GI50 in test [1] was 33 µM; in [2] it was 26.4 µM; in test [3] it was 45.4 µM; in [4] it was 12.6 µM; in [5], 35 µM; in test [6], 22 µM. Moreover, the GI50 is 32 µM in [7], 24.5 µM in [8], 16.4 µM in test [9] and 22.2 µM in test [10]. In addition, the TGI in test [1], in [2], in test [3], in test [4], in test [5] and in test [6] was over 100 µM in each case. For the same compound, the TGI in test [7] is over 100 µM; in test [8], over 86.9 µM; in [9], 44.1 µM; in test [10], over 83.9 µM.
As to `C=C[C@]1(C)C=C2C(=O)[C@@]3(O)OC[C@@]4(CCCC(C)(C)C43O)C2(O)C(O)C1` (stereo not given in full), the GI50 in test [1] was 7.77 µM; in test [2] it was 2.71 µM; in [3] it was 4.26 µM; in [4], 13.1 µM; in test [5] it was 15 µM; in test [6], 5.43 µM. For the same compound, the GI50 was 23 µM in test [7], 14.5 µM in test [8], 1.97 µM in [9] and 1.56 µM in test [10]. For the same compound, the TGI in [1] was found to be 21.5 µM; in [2], 8.51 µM; in test [3], 15.6 µM; in test [4], 26.8 µM; in [5], 31.3 µM; in test [6], 12.1 µM. The TGI was 69.6 µM in [7], 30.8 µM in [8], 24.9 µM in test [9] and 3.03 µM in test [10].
Consider `CC(C)=CC(=O)CC(=O)C(=O)Nc1ccc(Cl)c(Cl)c1`, for which the TGI in test [1], in test [2], in [3], in test [4], in [5] and in test [6] was over 100 µM throughout. Also, the TGI in test [7], in [8], in test [9] and in test [10] was over 100 µM throughout.
Consider `COc1ccc2c(c1)C(=O)c1c-2n(CCCN2CCOCC2)c(=O)c2ccccc12`, for which the GI50 in test [1] is 1.76 µM; in [2] it was 2.94 µM; in [3] it was 11.2 µM; in test [4], 3.64 µM; in [5], 4.52 µM; in test [6], 2.59 µM. The GI50 was 3.27 µM in [7], 1.97 µM in test [8], 0.579 µM in [9] and 4.62 µM in test [10]. The TGI was 5.87 µM in [1]; 10.1 µM in test [2]; over 100 µM in [3]; 42.5 µM in [4]; over 89.2 µM in test [5]; 7.57 µM in test [6]. Further, the TGI is 12.1 µM in test [7], 8.41 µM in test [8], over 32.6 µM in [9] and 57.2 µM in [10].
For the compound `C[C@H](CSC(=O)c1ccccc1)C(=O)N1c2ccccc2C[C@H]1C(=O)O`, the TGI in test [1] was over 100 µM; in test [2], over 100 µM; in test [3], over 100 µM; in test [4] it was over 10 µM; in test [5], over 100 µM; in test [6], over 100 µM. Further, the TGI in [7], in test [8], in test [9] and in [10] was over 100 µM throughout.
With `CN(C)CCNC(=O)c1ccc(Cl)c2c(Nc3ccc(S(N)(=O)=O)cc3)c3ccccc3nc12`, the TGI is 3.05 µM in [1]; 11.6 µM in test [2]; 9.38 µM in test [3]; 5.12 µM in [4]; 17.7 µM in test [5]; 4.56 µM in test [6]. Besides, the TGI in test [7] was 10.1 µM; in test [8], 11.9 µM; in [9], over 100 µM; in [10], 13.6 µM.
Consider `CCN1C(=O)N(CC)C2C1NN=c1s/c(=C3\C(=O)N(C)c4ccccc43)c(=O)n12` (stereo not given), for which the GI50 in [1] is 0.431 µM; in test [2] it was 3.24 µM; in test [3], 3.09 µM; in [4], 0.647 µM; in test [5], 3.25 µM; in test [6], 1.45 µM. Besides, the GI50 was 6.03 µM in test [7], 1.83 µM in test [8], 0.382 µM in test [9] and 11.2 µM in test [10]. Besides, the TGI in [1] was over 100 µM; in test [2], over 88.1 µM; in test [3] it was over 100 µM; in [4] it was over 100 µM; in [5] it was over 100 µM; in test [6], over 100 µM. Further, the TGI in [7] is over 100 µM; in test [8], over 100 µM; in test [9] it was over 100 µM; in test [10], over 74.3 µM.

The values are drawn from PubChem BioAssay (NCI).
